Measured values reported in patent EP2763666B1 (priority 2011, dated 2013).
Where two headings read alike, the source gives them in different places.

Columns and labels:
[1] = system: L. infantum infected dogs; type: in vivo; settings: for Antibody titre: mean ± standard deviation
[2] = system: L. infantum infected dogs; type: in vivo; settings: for RT-PCR on lymph node FNA: mean ± standard deviation
[3] = system: L. infantum infected dogs; type: in vivo; settings: mean ± standard deviation
[4] = system: L. infantum infected dogs; type: in vivo; settings: for A/G ratio / Serum albumin / Serum γ-globulin: mean ± standard deviation
[5] = system: L. infantum infected dogs; type: in vivo; settings: mean ± standard deviation; remark: listed apart in the source
canine blood monocytes = type: in vivo, dogs; settings: for Macrophages activity of killing: NO production / NBT reduction; for Macrophages activity of killing / Macrophages activity of binding: mean ± standard deviation; for Macrophages activity of binding: direct count of macrophages containing yeast cells
generalized demodicosis = assay: Canine generalized demodicosis: IP versus milbemycin oxime; type: in vivo, dogs; settings: fraction of cases
Protocol: Twelve dogs diagnosed with generalized demodicosis were treated, 6 with IP and 6 with milbemycin oxime. Cases diagnosed before two years of age were classified as juvenile-onset (58.3%, 7 dogs) and those diagnosed after two years of age as adult-onset (41.6%, 5 dogs). […] As previous mentioned, in six dogs cured with milbemycin oxime, the drug was used for 1-6 months (mean 2.3 months) at a dosage of 0.5-1.6 mg kg-1 body weight (mean 0.75 mg kg-1). No significant difference in dosage or treatment time was seen between juvenile and adult cases. Six dogs cured with IP were treated at the same manner indicated as reported in Example 1, and 6). In group of IP treated dogs, not differences were observed between young and adult treated animals. […] Cases with severe pododemodicosis had less chance of a cure (2/3 not cured) by using M-O protocol, but not with IP protocol (2/2 cured).
Dogs: dogs of every age, breed or sex with generalized demodicosis were used in this study. All dogs. […] Dogs developing the disease at less than two years of age were classified as juvenile-onset generalized demodicosis. Dogs that developed disease at two years of age or older were classified as adult onset generalized demodicosis. […]
Follow-up: follow-up visits were scheduled once a month for clinical evaluation and skin scrapings. The scraping sites were recorded and sampled at each subsequent examination. […]

[6] = T0 (beginning of therapy), baseline

In the case of `Cc1ccc(-c2cc(C(F)(F)F)nn2-c2ccc(S(N)(=O)=O)cc2)cc1` [Celecoxib], the “side effects: animals with chronic bleeding” value (5 control parrots treated only with anti-COX2) is reported as “two”, the “death with acute hemorrhagic event in the proventriculus, time from initiation of therapy” value (adult female African Grey parrot) is reported as at most 7 days and the “negativization of crop biopsies” value (histology at T1 (six months) and T2 (one year of therapy)) is reported as 20%. For the same compound, the “renal side effect leading to discontinuation” value (in vivo) was “inducing renal failure”, the parrots survived (of 5 parrots, 1.5 year later) was 1 and the parrots died (of 5 parrots, during four months after the end of the therapy) was 4.
For Meglumine antimoniate [Control group], the “trend of antibody (Ab titre)” value ([1]; Figure 2A legend, after the first six months of the trial) was “antibody title increase”, the Antibody titre [1, 6] was 908 ± 1240 and the Antibody titre ([1]; T1 (2 months)) was 779 ± 1031. For the same compound, the Antibody titre ([1]; T2 (6 months)) was 378 ± 321, the Antibody titre ([1]; T3 (12 months)) was 493 ± 678 and the “PCR results, levels of DNA copies (trend)” value ([2]; Figure 2B legend, after two months of treatment up to one year) was “progressive increase of parasite DNA in lymphnodes and bone-marrow”. The “RT-PCR on lymph node FNA” value [2, 6] was 613.228 ± 747.653 Parasites/ml, the “RT-PCR on lymph node FNA” value ([2]; T1 (2 months)) was 287.482 ± 434.807 Parasites/ml and the “RT-PCR on lymph node FNA” value ([2]; T2 (6 months)) was 210.103 ± 364.909 Parasites/ml. The “RT-PCR on lymph node FNA” value ([2]; T3 (12 months)) was 340.367 ± 511.898 Parasites/ml, the Clinical scores [3, 6] was 4,4 ±2 and the Clinical scores ([3]; T1 (2 months)) was 2,5 ± 1,9. The Clinical scores ([3]; T2 (6 months)) was 2,7 ±2, the Clinical scores ([3]; T3 (12 months)) was 2,8 ± 2,2 and the “electrophoresis: gamma-globulins levels in sera (trend)” value ([4]; Figure 2D legend) was “after a first period of decreasing trend, the gamma globulins trend increase”. The A/G ratio [4, 6] was 0,48 ± 0,23, the Serum albumin [4, 6] was 30,08 ± 9,63% and the “Serum γ-globulin” value [4, 6] was 30,67 ± 7,91%. For the same compound, the A/G ratio ([4]; T1 (2 months)) was 0,55 ± 0,23, the Serum albumin ([4]; T1 (2 months)) was 34,03 ± 9,5% and the “Serum γ-globulin” value ([4]; T1 (2 months)) was 23,15 ± 7,46%. For the same compound, the A/G ratio ([4]; T2 (6 months)) was 0,57 ± 0,23, the Serum albumin ([4]; T2 (6 months)) was 35,22 ± 9,35% and the “Serum γ-globulin” value ([4]; T2 (6 months)) was 21,56 ± 5,86%. The A/G ratio ([4]; T3 (12 months)) was 0,57 ± 0,22, the Serum albumin ([4]; T3 (12 months)) was 35,26 ±9,61% and the “Serum γ-globulin” value ([4]; T3 (12 months)) was 22,74 ± 7,93%. The “CD3^+/CD21^+ ratio” value [5, 6] was 42,62 ± 21,24, the “CD4^+/CD8^+ ratio” value [5, 6] was 1,02 ± 0,48 and the “CD3^+/CD21^+ ratio” value ([5]; T1 (2 months)) was 38,13 ± 20,56. For the same compound, the “CD4^+/CD8^+ ratio” value ([5]; T1 (2 months)) was 1,04 ± 0,46, the “CD3^+/CD21^+ ratio” value ([5]; T2 (6 months)) was 39,85 ± 17,58 and the “CD4^+/CD8^+ ratio” value ([5]; T2 (6 months)) was 1,02 ± 0,45. The “CD3^+/CD21^+ ratio” value ([5]; T3 (12 months)) was 38,64 ± 19,54, the “CD4^+/CD8^+ ratio” value ([5]; T3 (12 months)) was 1,31 ± 0,58 and the “Macrophages killing activity, levels of NO production / NBT reduction (trend)” value (canine blood monocytes; Figure 4A legend) was “constantly low”. The “Macrophages activity of killing” value (canine blood monocytes; [6]) was 1,1 ± 0,1, the “Macrophages activity of binding” value (canine blood monocytes; [6]) was 31,84 ± 12,9 and the “Macrophages activity of killing” value (canine blood monocytes; T1 (2 months)) was 1,2 ± 0,1. The “Macrophages activity of binding” value (canine blood monocytes; T1 (2 months)) was 34,84 ± 14,2, the “Macrophages activity of killing” value (canine blood monocytes; T2 (6 months)) was 1,1 ± 0,1 and the “Macrophages activity of binding” value (canine blood monocytes; T2 (6 months)) was 35,42 ± 13,68. For the same compound, the “Macrophages activity of killing” value (canine blood monocytes; T3 (12 months)) was 1,1 ± 0,1 and the “Macrophages activity of binding” value (canine blood monocytes; T3 (12 months)) was 32,77 ± 12,78.
For milbemycin oxime [M-O], the “cases with severe pododemodicosis not cured” value (generalized demodicosis) was 2/3.
